The record followed here is US10653688B2, “6-(6-membered heteroaryl and aryl)isoquinolin-3-yl carboxamides and preparation and use thereof” (Samumed, LLC, priority 2017, dated 2020).

The test system of assay [1] is Wnt activity (SW480 colon carcinoma cells stably expressing the Sp5-Luc reporter gene). The assay can be described thus: Wnt activity screening assay (Sp5-Luc reporter gene assay). Type of assay: cell-based, human. Particulars: for pEC50: 36 to 48 hours; for inhibition at 10 µM: read-out: percent inhibition at 10 μM (given for EC50 >10 μM), 10 μM. The source says: The screening assay for Wnt activity is described as follows. Reporter cell lines can be generated by stably transducing cancer cell lines (e.g., colon cancer) or primary cells (e.g., IEC-6 intestinal cells) with a lentiviral construct that includes a Wnt-responsive promoter driving expression of the firefly luciferase gene.
SW480 colon carcinoma cells were transduced with a lentiviral vector expressing luciferase with a human Sp5 promoter consisting of a sequence of eight TCF/LEF binding sites. SW480 cells stably expressing the Sp5-Luc reporter gene and a hygromycin resistance gene were selected by treatment with 150 μg/mL of hygromycin for 7 days. These stably transduced SW480 cells were expanded in cell culture and used for all further screening activities. […] For Sp5-Luc reporter gene assays, the cells were plated at 4,000 cells/well in 384-well plates with a DMEM medium containing 1% fetal bovine serum, and 1% Penicillin-Streptomycin and incubated for 36 to 48 hours at 37° C. and 5% CO2. Following incubation, 15 μl of BriteLite Plus luminescence reagent (Perkin Elmer) was added to each well of the 384-well assay plates. The plates were placed on an orbital shaker for 2 min and then luminescence was quantified using the Envision (Perkin Elmer) plate reader. Readings were normalized to DMSO only treated cells, and normalized activities were utilized for EC50 calculations using the dose-response log (inhibitor) vs. response-variable slope (four parameters) nonlinear regression feature available in GraphPad Prism 5.0 (or Dotmatics).
For orientation: A reporter such as luciferase makes a cellular process visible.

The target in a further assay is recombinant GSK3β kinase (Homo sapiens (Human), UniProt P49841). In words: GSK3β kinase assay (Ser/Thr 09 peptide Z-lyte, FRET).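 Also: FRET read-out as coumarin over fluorescein emission ratio, compounds incubated one hour at room temperature, IC50 from dose-response curve fit.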 It counts as biochemical.
Chain of recombinant GSK3β kinase (P49841 whole entry): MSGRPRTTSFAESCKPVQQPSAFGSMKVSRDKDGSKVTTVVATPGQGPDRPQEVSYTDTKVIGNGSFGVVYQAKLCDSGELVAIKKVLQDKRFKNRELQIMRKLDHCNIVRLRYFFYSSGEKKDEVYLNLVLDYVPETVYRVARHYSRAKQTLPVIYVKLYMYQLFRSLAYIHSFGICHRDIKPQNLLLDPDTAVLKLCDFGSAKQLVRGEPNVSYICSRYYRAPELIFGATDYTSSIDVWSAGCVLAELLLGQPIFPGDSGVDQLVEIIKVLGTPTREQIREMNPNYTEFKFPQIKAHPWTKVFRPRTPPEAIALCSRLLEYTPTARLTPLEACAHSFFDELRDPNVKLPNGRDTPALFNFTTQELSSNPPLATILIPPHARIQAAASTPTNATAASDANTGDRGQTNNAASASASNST
The subject of assay [2] is SW480 colon carcinoma cells. In words: Cell viability assay (CellTiter-Glo). It counts as cell-based, human. As to conditions: for pEC50: four days, CellTiter-Glo. As to the method: SW480 colon carcinoma cells were transduced with a lentiviral vector expressing luciferase with a human Sp5 promoter consisting of a sequence of eight TCF/LEF binding sites. SW480 cells stably expressing the Sp5-Luc reporter gene and a hygromycin resistance gene were selected by treatment with 150 μg/mL of hygromycin for 7 days. These stably transduced SW480 cells were expanded in cell culture and used for all further screening activities.
For the Cell Viability Assays, the cells were plated at 2,000 cells/well in 384-well plates with a DMEM medium containing 1% fetal bovine serum, and 1% Penicillin-Streptomycin and incubated for […] at 37° C. and 5% CO2. Eight replicates of DMSO-treated cells served as controls and cells treated with compound were performed in duplicate.
After incubation, 10 μL of CellTiter-Glo (Promega) was added to each well allowed to incubate for approximately 12 minutes. This reagent “results in cell lysis and generation of a luminescent signal proportional to the amount of ATP present. The amount of ATP is directly proportional to the number of cells present in culture, in agreement with previous reports. The CellTiter-Glo Assay generates a “glow-type” luminescent signal, produced by the luciferase reaction (Promega.com)”.

Assay [3] concerns LL29 cells (primary human fibroblasts derived from IPF patients), α-smooth muscle actin. The assay can be described thus: Inhibition of fibrotic process: TGF-β1-treated primary human fibroblasts, αSMA staining.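 As to all read-outs here: controls were TGF-β1-stimulated wells with DMSO vehicle as the positive reference and cells given DMSO alone as the negative reference.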 Type of assay: cell-based. Particulars: for pEC50: TGF-β1 20 ng/mL, 4 days, % cells positive for αSMA; for inhibition at 10 µM: read-out: percent inhibition at 10 μM (given for EC50 >10 μM), TGF-β1, αSMA, 10 μM.

The test system of assay [4] is IL-6 in human peripheral blood mononuclear cells (huPBMCs). In words: IL-6 inhibition in LPS-stimulated human peripheral blood mononuclear cells (HTRF). Type of assay: cell-based. As to conditions: for pEC50: LPS 50 ng/mL, 22 hours, IL-6 HTRF; for inhibition at 10 µM: read-out: percent inhibition at 10 μM (given for EC50 >10 μM), LPS, IL-6, 10 μM. As to the method: Human Peripheral Blood Mononuclear Cells:
Fresh Normal PB MNC (Catalog # PB001, AllCells, Alameda, Calif.) were shipped overnight at 4° C. and resuspended in Roswell Park Memorial Institute (RPMI) 1640 Medium, with GlutaMAX Supplement (Catalog #61870127, ThermoFisher Scientific, Waltham, Mass.) supplemented with 1% Penicillin-Streptomycin (Catalog #15140163, ThermoFisher Scientific, Waltham, Mass.) and 1% fetal bovine serum (FBS) (Catalog #16140089, ThermoFisher Scientific, Waltham, Mass.) assay media.
Fresh normal human peripheral blood mononuclear cells (huPBMCs) were resuspended in 1% FBS-RPMI assay media with 1% Penicillin-Streptomycin 1% to a cell concentration of 1×10e6 cells/mL. […] 50 ng/mL of Lipopolysaccharides from Escherichia coli 0111:B4 (Catalog # L5293-2ML, Sigma-Aldrich, St. Louis, Mo.) was added after 2 hours and cells were incubated for another 22 hours at 37° C.-5% CO2. After 22 hour incubation, a mixture of anti-IL6 XL665 and anti-IL-6 Cryptate diluted in reconstitution buffer (Catalog #62IL6PEC, Cisbio Inc., Bedford, Mass.) was added to each well. Following incubation for 3 hours at room temperature, Homogeneous Time-Resolved Fluorescence (HTRF) was measured using the Envision (Perkin Elmer, Shelton, Conn.) at 665 nm and […]. The ratio of fluorescence at 665 nm to 620 nm was used as a readout for IL-6 quantification. All samples were processed in duplicate. Readings were normalized to DMSO treated cells and normalized activities were utilized for EC50 calculations. EC50 was determined using software generated by Dotmatics Limited (Windhill Bishops Stortford Herts, UK) using the Levenberg-Marquardt 4 parameter fitting procedure with finite different gradients.

Assay [5] deals with recombinant DYRK1A kinase (Homo sapiens (Human), UniProt Q13627). The assay can be described thus: DYRK1A kinase assay (Ser/Thr 18 peptide Z-lyte, FRET).
The mark [6] stands for this setting: GSK3β kinase, head says EC50, method says IC50, ATP 46 μM.
The mark [7] stands for this setting: DYRK1A kinase, head says EC50, method says IC50, ATP 30 μM.

pEC50: −log10 of the molar value. Read-outs that look alike come from different tables or passages of the source.

Usually pEC50 stands for −log10 of the EC50, conventionally taken in molar units. As for `CN1CCN(c2cc(C(=O)Nc3cc4cc(-c5cc(N)cc(F)c5)ccc4cn3)ccn2)CC1` [Compound 1, N-(6-(3-Amino-5-fluorophenyl)isoquinolin-3-yl)-2-(4-methylpiperazin-1-yl) isonicotinamide], the negative-log EC50 (pEC50) in assay [1] (Homo sapiens) was 5.40; on recombinant GSK3β kinase (setting [6]), below 5.00; in assay [2] (Homo sapiens, 96 h), 5.23; in assay [3] (Homo sapiens, Fibroblast, 96 h), 5.64; in assay [4] (Homo sapiens, PBMC), 5.15; in assay [5] (setting [7]), 7.12.
For `CC(C)Nc1cc(F)cc(-c2ccc3cnc(NC(=O)c4ccnc(N5CCN(C)CC5)c4)cc3c2)c1` [Compound 2, N-(6-(3-Fluoro-5-(isopropylamino)phenyl)isoquinolin-3-yl)-2-(4-methylpiperazin-1-yl)isonicotinamide], the pEC50 is 5.69 in assay [1] (Homo sapiens); below 5.00 on recombinant GSK3β kinase (setting [6]); 5.86 in assay [2] (Homo sapiens, 96 h); 6.05 in assay [3] (Homo sapiens, Fibroblast, 96 h); 5.88 in assay [4] (Homo sapiens, PBMC); 6.45 in assay [5] (setting [7]).
The term inhibition denotes the relative decrease from the control value, in per cent. In the case of `CN1CCN(c2cc(C(=O)Nc3cc4cc(-c5ccccn5)ccc4cn3)ccn2)CC1` [Compound 4, 2-(4-Methylpiperazin-1-yl)-N-(6-(pyridin-2-yl)isoquinolin-3-yl) isonicotinamide], the pEC50 in assay [1] (Homo sapiens) is below 5.00; at recombinant GSK3β kinase it was below 5.00; in assay [2] (Homo sapiens, 96 h), below 5.00; in assay [3] (Homo sapiens, Fibroblast, 96 h), 5.43; in assay [4] (Homo sapiens, PBMC) it was 5.17; in assay [5], 6.62. The inhibition at 10 µM was determined as 3.3% in assay [1] (Homo sapiens) and 21.3% in assay [2] (Homo sapiens, read-out: percent inhibition at 10 μM (given for EC50 >10 μM), 10 μM).
As for `CN1CCN(c2cc(C(=O)Nc3cc4cc(-c5ccncc5)ccc4cn3)ccn2)CC1` [Compound 5, 2-(4-Methylpiperazin-1-yl)-N-(6-(pyridin-4-yl)isoquinolin-3-yl) isonicotinamide], the pEC50 in assay [1] (Homo sapiens) is below 5.00; on recombinant GSK3β kinase, below 5.00; in assay [2] (Homo sapiens, 96 h) it was 5.02; in assay [3] (Homo sapiens, Fibroblast, 96 h), 5.61; in assay [4] (Homo sapiens, PBMC), below 5.00; in assay [5] it was 7.74. In addition, the inhibition at 10 µM in assay [1] (Homo sapiens) worked out at 38.5%; in assay [4] (Homo sapiens, PBMC), 4.1%.
For `CN1CCN(c2cc(C(=O)Nc3cc4cc(-c5cccnc5)ccc4cn3)ccn2)CC1` [Compound 13, 2-(4-Methylpiperazin-1-yl)-N-(6-(pyridin-3-yl)isoquinolin-3-yl) isonicotinamide], the pEC50 in assay [1] (Homo sapiens) was 6.80; on recombinant GSK3β kinase, below 5.00; in assay [2] (Homo sapiens, 96 h), 6.49; in assay [3] (Homo sapiens, Fibroblast, 96 h), 6.09; in assay [4] (Homo sapiens, PBMC), 5.55; in assay [5] it was 8.52.
Turning to `CN1CCN(c2cc(C(=O)Nc3cc4cc(-c5cncc(F)c5)ccc4cn3)ccn2)CC1` [Compound 24, N-(6-(5-Fluoropyridin-3-yl)isoquinolin-3-yl)-2-(4-methylpiperazin-1-yl) isonicotinamide], the pEC50 in assay [1] (Homo sapiens) was below 5.00; at recombinant GSK3β kinase (setting [6]), below 5.00; in assay [2] (Homo sapiens, 96 h), 5.02; in assay [3] (Homo sapiens, Fibroblast, 96 h) it was 5.56; in assay [4] (Homo sapiens, PBMC), below 5.00; in assay [5] (setting [7]), 7.96. Also, the inhibition at 10 µM in assay [1] (Homo sapiens) stood at 20.2%; in assay [4] (Homo sapiens, PBMC), 2.8%.
In the case of `CN1CCN(c2cc(C(=O)Nc3cc4cc(-c5cncc(Cl)c5)ccc4cn3)ccn2)CC1` [Compound 25, N-(6-(5-Chloropyridin-3-yl)isoquinolin-3-yl)-2-(4-methylpiperazin-1-yl) isonicotinamide], the pEC50 in assay [1] (Homo sapiens) was below 5.00; on recombinant GSK3β kinase (setting [6]) it was below 5.00; in assay [2] (Homo sapiens, 96 h), 5.05; in assay [3] (Homo sapiens, Fibroblast, 96 h), below 5.00; in assay [4] (Homo sapiens, PBMC), below 5.00; in assay [5] (setting [7]) it was below 5.00. In addition, the inhibition at 10 µM in assay [1] (Homo sapiens) was 8.9%; in assay [3] (Homo sapiens, Fibroblast) it was 44.8%; in assay [4] (Homo sapiens, PBMC), 4.6%.
As to `CN1CCN(CC(=O)Nc2cc3cc(-c4ccc(C(F)(F)F)nc4)ccc3cn2)CC1` [Compound 30, 2-(4-Methylpiperazin-1-yl)-N-(6-(6-(trifluoromethyl)pyridin-3-yl)isoquinolin-3-yl)acetamide], the pEC50 in assay [1] (Homo sapiens) was 5.01; at recombinant GSK3β kinase (setting [6]), below 5.00; in assay [2] (Homo sapiens, 96 h), 5.06; in assay [3] (Homo sapiens, Fibroblast, 96 h), below 5.00; in assay [4] (Homo sapiens, PBMC), below 5.00; in assay [5] (setting [7]), below 5.00. The inhibition at 10 µM was 24.9% in assay [3] (Homo sapiens, Fibroblast) and 5.2% in assay [4] (Homo sapiens, PBMC).
In the case of `COc1cncc(-c2ccc3cnc(NC(=O)c4ccnc(N5CCN(C)CC5)c4)cc3c2)c1` [Compound 34, N-(6-(5-Methoxypyridin-3-yl)isoquinolin-3-yl)-2-(4-methylpiperazin-1-yl) isonicotinamide], the pEC50 is 5.98 in assay [1] (Homo sapiens); below 5.00 at recombinant GSK3β kinase (setting [6]); 5.92 in assay [2] (Homo sapiens, 96 h); 6.29 in assay [3] (Homo sapiens, Fibroblast, 96 h); 5.67 in assay [4] (Homo sapiens, PBMC); 8.40 in assay [5] (setting [7]).
Turning to `O=C(Nc1cc2cc(-c3cncc(OC4CCNCC4)c3)ccc2cn1)c1ccc(F)cc1` [Compound 35, 4-Fluoro-N-(6-(5-(piperidin-4-yloxy)pyridin-3-yl)isoquinolin-3-yl) benzamide], the pEC50 in assay [1] (Homo sapiens) was 5.86; at recombinant GSK3β kinase (setting [6]), below 5.00; in assay [2] (Homo sapiens, 96 h), 5.94; in assay [3] (Homo sapiens, Fibroblast, 96 h) it was 5.55; in assay [4] (Homo sapiens, PBMC), 5.99; in assay [5] (setting [7]) it was 8.00.
As to `CC(C)Nc1cncc(-c2ccc3cnc(NC(=O)C4CCN(CCF)CC4)cc3c2)n1` [Compound 89, 1-(2-Fluoroethyl)-N-(6-(6-(isopropylamino)pyrazin-2-yl)isoquinolin-3-yl) piperidine-4-carboxamide], the pEC50 in assay [1] was 6.75; at recombinant GSK3β kinase (setting [6]), 7.85; in assay [2], 6.35; in assay [3] it was 5.41; in assay [4], 6.41.
As to `CC(C)CCN1CCC(C(=O)Nc2cc3cc(-c4cncc(NC(C)C)n4)ccc3cn2)CC1` [Compound 91, 1-Isopentyl-N-(6-(6-(isopropylamino)pyrazin-2-yl)isoquinolin-3-yl) piperidine-4-carboxamide], the pEC50 in assay [1] was 6.14; in assay [2], 5.16; in assay [3], 7.72; in assay [4] it was 6.35.
